In patent US20100003228A1, “T-CELL VACCINE” (priority 2006, published 2010):
Where no end group is shown, it is not given here.

Test system: myelin reactive T cells in PBMCs
Assay: EAA with positivity by Variance Evaluation Method or CPM Variance Method (clinical trials)
Assay type: cell-based, human
Settings: clinical trial population, RR-MS or CIS subjects
Source text: The predetermined value may also be calculated using a Variance Evaluation Method as follows: • 1. EAAs may be run on a given patient population (minimum of 120 assays from 120 unique subjects) • 2. A “negative population” may be created by averaging all SI values<2.5 • 3. The Standard Deviation (SD) may be calculated for each peptide • 4. The following for each peptide may be then be calculated: • a. Average+1SD • b. Average+2SD • c. Average+3SD • 5. The following SIs may be considered above the predetermined value: • a. SI greater than or equal to the average+3SD • b. Any SI greater than or equal to 2.5
The predetermined value may also be evaluated using a Counts per Minute (CPM) Variance Method. This algorithm may set a comprehensive cutoff for all peptides within a given assay. It may be calculated as follows: • 1. EAAs may be run and the CPM for all control (media only, no antigen) wells averaged. • 2. The SD for CPM of the control wells may then be calculated. • 3. The following may then be calculated for the control wells: • a. Average+1SD • b. Average+2SD • c. Average+3SD • 4. Any peptide with an average CPM greater than or equal to the average+3SD of the control wells may be considered above the predetermined value.
Any peptide, either analyzed in an individual well or as averaged over wells run in triplicate, with an SI≧2.5, an SI≧average+3SD by the Variance Evaluation Method, or an SI≧average+3SD by the CPM variance method may be considered above the predetermined value, which may indicate a T cell(s) positive for reactivity to a peptide.
The peptides of Example 3 have been tested in 429 EAAs in clinical trials as follows. […] Pre-Vaccine EAAs have 158 positive out of 387 assays (40.8%), with Relapse Remitting MS patients (RRMS) showing 150 positive of 368 assays (40.8%), and Clinically Isolated Syndrome (CIS) patients showing 8 positive of 19 assays (42.1%).
Over the course of 6 months a study was conducted with 120 subjects meeting the criteria for the clinical trial.
The above mentioned population of subjects was evaluated by EAA using the Variance Evaluation Method and CPM Variance Method as described above, and deemed eligible for vaccine production. Of the 120 attempts to manufacture vaccine, there were 2 shipping failures (blood was not received within our stated criteria), 1 culture was lost to contamination and 5 samples arrived with low cell volume/yield. Of the remaining 112 subjects, vaccine was successfully generated in 89 subjects, with 22 still in production (98.9% of eligible samples, 92.5% of all samples completed). From this, a positive EAA was deemed predictive of the ability to manufacture a vaccine to therapeutic dose by methods disclosed herein.

Substance	# of Subjects (frequency of identification)	% of Subjects (frequency of identification) [%]
FAVLKLMGRGTKF [PLP67]	5	4.2
MOGm2: mix of MOG 3 and MOG 4 (chain 1 RHPIRALVGDEVELPC; chain 2 RALVGDEVELPCRISP)	6	5.0
MOGm3: mix of MOG 5 and MOG 6 (chain 1 GDEVELPCRISPGKNA; chain 2 ELPCRISPGKNATGME)	4	3.4
MOGm4: mix of MOG 7 and MOG 8 (chain 1 RISPGKNATGMEVGWY; chain 2 GKNATXMEVGWYRPPF; X not resolved here; also: mixture of MOG 7 and MOG 8)	3	2.5
MOGm5: mix of MOG 9 and MOG 10 (chain 1 TGMEVGWYRPPFSRVV; chain 2 VGWYRPPFSRVVHLYR)	8	6.7
MOGm6: mix of MOG 11 and MOG 12 (chain 1 RPPFSRVVHLYRNGKD; chain 2 SRVVHLYRNGKDQDGD)	4	3.4
MOGm7: mix of MOG 13 and MOG 14 (chain 1 HLYRNGKDQDGDQAPE; chain 2 NGKDQDGDQAPEYRGR)	5	4.2
MOGm19: mix of MOG 37 and MOG 38 (chain 1 VFLCLQYRLRGKLRAE; chain 2 LQYRLRGKLRAEIENL)	6	5.0
MOGm20: mix of MOG 39 and MOG 40 (chain 1 LRGKLRAEIENLHRTF; chain 2 LRAEIENLHRTFDPHF)	1	0.8
MOGm21: mix of MOG 41 and MOG 42 (chain 1 IENLHRTFDPHFLRVP; chain 2 HRTFDPHFLRVPCWKI)	40	33.6
MOGm22: mix of MOG 43 and MOG 44 (chain 1 DPHFLRVPCWKITLFV; chain 2 LRVPCWKITLFVIVPV)	2	1.7
MOGm23: mix of MOG 45 and MOG 46 (chain 1 CWKITLFVIVPVLGPL; chain 2 TLFVIVPVLGPLVALI)	20	16.8
MOGm24: mix of MOG 47 and MOG 48 (chain 1 IVPVLGPLVALIICYN; chain 2 LGPLVALIICYNWLHR)	15	12.6
MOGm26: mix of MOG 51 and MOG 52 (chain 1 WLHRRLAGQFLEELRN; chain 2 RLAGQFLEELRNPF)	9	7.6
PLPm4: mix of PLP 7 and PLP 8 (chain 1 CFFGVALFCGCGHEAL; chain 2 VALFCGCGHEALTGTE)	26	21.8
PLPm6: mix of PLP 11 and PLP 12 (chain 1 TGTEKLIETYFSKNYQ; chain 2 KLIETYFSKNYQDYEY)	4	3.4
PLPm11: mix of PLP 21 and PLP 22 (chain 1 LYGALLLAEGFYTTGA; chain 2 LLLAEGFYTTGAVRQI)	4	3.4
PLPm12: mix of PLP 23 and PLP 24 (chain 1 EGFYTTGAVRQIFGDY; chain 2 TTGAVRQIFGDYKTTI)	1	0.8
PLPm13: mix of PLP 25 and PLP 26 (chain 1 VRQIFGDYKTTICGKG; chain 2 FGDYKTTICGKGLSAT)	3	2.5
PLPm19: mix of PLP 37 and PLP 38 (chain 1 WLGHPDKFVGITYALT; chain 2 PDKFVGITYALTVVWL)	11	9.2
PLPm22: mix of PLP 43 and PLP 44 (chain 1 CSAVPVYIYFNTWTTC; chain 2 PVYIYFNTWTTCQSIA)	2	1.7
PLPm24: mix of PLP 47 and PLP 48 (chain 1 QSIAFPSKTSASIGSL; chain 2 FPSKTSASIGSLCADA)	7	5.9
PLPm25: mix of PLP 49 and PLP 50 (chain 1 TSASIGSLCADARMYG; chain 2 IGSLCADARMYGVLPW)	3	2.5
PLPm32: mix of PLP 63 and PLP 64 (chain 1 ATLVSLLTFMIAATYN; chain 2 SLLTFMIAATYNFAVL)	12	10.1

Test system: myelin-reactive T cells
Assay: Growth of myelin reactive T cell lines with low stimulation indices
Assay type: cell-based, human
Settings: subject 1014, Day 0
Source text: Using the algorithms described above, statistically significant SIs as low as 1.3 have been observed and therefore should be able grow in response to antigen. To verify this ability, 5 cell lines across two patients are shown with an SI<2.0. The results are shown in Table 12 and FIG. 24, which indicate growth of these cell lines with only peptide antigen stimulation and common T cell growth factors.
PBMC for subject 1042 were run in the EAA, and […] were positive, including PLPm18 with an SI of 1.8, PLPm26 with an SI of 2.5 and PLPm28 with an SI of 2.5. […] PBMC for subject 1014 were run in the EAA, and 4 mixes were positive, including MBPm14 with an SI of 1.7, PLPm17 with an SI of 1.7, PLPm28 with an SI of 2.2 and MOGm6 with an SI of 1.9. […]
PBMCs were isolated via density gradient centrifugation from peripheral blood obtained through venipuncture into ACD-1 anticoagulant. PBMCs were plated at 2.5E+06 cells/well in 24 well plates. Antigen in the form of 16mer peptides identified in the EAA were added at a final concentration of 20 ug/ml. Interluekin-2 (IL-2) was added at a final concentration of 100 U/ml starting at 48 hours and IL-2 was added at the same concentration with each feeding or splitting of wells. Peptide restimulation in the presence of antigen presenting cells (APCs-autologous PBMCs irradiated at 3500 rad) was done at days 7, 14 and 21. Interleukin-15 (IL-15) was added at a final concentration of 5 ng/ml-20 ng/ml (lot specific) starting at day 14 and continued through the remainder of the culture period. Cells lines were all harvested by day 35 and had achieved expansions of 3.0-8.2 fold.

Substance	Fold Expansion	Viable Cell Count, Count/well	Viable Cell Count, Total Cells
MOGm6: mix of MOG 11 and MOG 12 (chain 1 RPPFSRVVHLYRNGKD; chain 2 SRVVHLYRNGKDQDGD)	1.3	2.50E+06	3.00E+07

Same assay, conditions: subject 1014, Day 17

Substance	Fold Expansion	Viable Cell Count, Count/well	Viable Cell Count, Total Cells
MOGm6: mix of MOG 11 and MOG 12 (chain 1 RPPFSRVVHLYRNGKD; chain 2 SRVVHLYRNGKDQDGD)	0.7	2.18E+06	1.96E+07

Same assay, conditions: subject 1014, Day 19

Substance	Fold Expansion	Viable Cell Count, Count/well	Viable Cell Count, Total Cells
MOGm6: mix of MOG 11 and MOG 12 (chain 1 RPPFSRVVHLYRNGKD; chain 2 SRVVHLYRNGKDQDGD)	1.3	4.27E+06	3.84E+07

Same assay, conditions: subject 1014, Day 28

Substance	Fold Expansion	Viable Cell Count, Count/well	Viable Cell Count, Total Cells
MOGm6: mix of MOG 11 and MOG 12 (chain 1 RPPFSRVVHLYRNGKD; chain 2 SRVVHLYRNGKDQDGD)	4.1	4.35E+06	1.22E+08

Same assay, conditions: subject 1014, Day 33

Substance	Fold Expansion	Viable Cell Count, Count/well	Viable Cell Count, Total Cells
MOGm6: mix of MOG 11 and MOG 12 (chain 1 RPPFSRVVHLYRNGKD; chain 2 SRVVHLYRNGKDQDGD)	4.4	4.71E+06	1.32E+08

Same assay, conditions: subject 1014, Day 35

Substance	Fold Expansion	Viable Cell Count, Count/well	Viable Cell Count, Total Cells
MOGm6: mix of MOG 11 and MOG 12 (chain 1 RPPFSRVVHLYRNGKD; chain 2 SRVVHLYRNGKDQDGD)	3.7	3.93E+06	1.10E+08
